According to patent US11181533B2, “Diagnosing and treating Alzheimer's disease” (DIGNITY HEALTH, priority 2013, dated 2021):
Where two headings read alike, the source gives them in different places. No end group written: not given here.

Tests used:
[1] = test system: Aβ induced cell death; assay: Protection against Aβ induced cell death; format: cell-based; conditions: by enhancing mitochondrial function
[2] = test system: SAMP8 mice and APP transgenic mice; conditions: intranasal administration, cited from earlier work

Pituitary Adenylate Cyclase Activating Polypeptide (HSDGIFTDSYSRYRKQMAVKKYLAAVLGKRYKQRVKNK; ends and bridges not checked; UniProt P18509 132-169, looked up) [PACAP, small peptide with either 38 amino acids in full length form (PACAP-38), or 27 amino acids in short form (PACAP-27); neurotrophin]
protection against Aβ induced cell death [1]: protects against Aβ induced cell death | Novel object recognition ([2]; APP transgenic mice): enhances Novel object recognition | Novel object recognition ([2]; SAMP8 mice): enhances Novel object recognition
